Assay results reported in patent publication US6440690B1, “Peptides for the activation of the immune system in humans and animals” (priority 1995, dated 2002).
“Also recorded” adds a separate entry of the source. Ends that are not written are not given here.

Key:
[1] = system: Leishmania major; test: Murine cutaneous leishmaniasis, drug administration to infected Balb/c mice (TABLE V); type: in vivo
Source text: To investigate the peptide's efficacy in affecting leishmania parasites in vivo, murine cutaneous-leishmaniasis models were used in which mice inoculated with Leishmania major promastigotes were allowed to develop a characteristic cutaneous lesion that attained a mean diameter of […] at day 27 of inoculation. Frommel et al., 1988 , Infection and Immunity 56:843. Treatment consisted of 3 peptide injections at intervals of 5 days and was compared with the effect induced by sodium stibogluconate, the current anti-leishmaniasis drug of choice. After injections, samples drawn periodically from the lesion area were analyzed for assessment of parasites evolution.
Methods: Female mice, 6 to 8 weeks old, were inoculated with Leishmania major promastigotes (1×10^6) at the proximal portion of the tail as described in Frommel et al., 1988, Infection and Immunity 56:843. […] Simultaneously, evolution of the cutaneous lesion was assessed by direct measurement of the necrotic zone of the lesion.
Methods. Cytokine concentrations in serum of treated and untreated Balb/c mice were determined by enzyme-immunoassay (Kit Genzyme®) using murine anti-IFN-γ or anti-TNF-α monoclonal antibodies and the corresponding rabbit polyclonal antibodies conjugated to peroxidase, following the manufacturer instructions.

[2] = system: Leishmania major; test: Murine cutaneous leishmaniasis, SPYY i.v. in Balb/c mice; type: in vivo; details: same doses as SPYY, 6 mice
[3] = system: Pseudonomas aeruginosa; details: U.S. Pat. No. 5,221,664; cited from earlier work
[4] = system: pathogenic microorganisms including bacteria, yeasts, filamentous fungi and protozoa; test: Antimicrobial activity on the spectrum of microorganisms of TABLE I; type: cell-based; details: same experimental conditions
Procedure: Methods. […] Antimicrobial assays were performed as described in Mor and Nicolas, 1994, J. Biol. Chem. 269:1934-1939. The effect on leishmania was assessed after 1 hour peptide exposure by counting living cells following trypan blue […]. Promastigotes were cultured (1×10^5 cells/ml) at 26° C. […] Trop. Med. Parasitol. 78:423-425, and cultured (1×10^4 cells/ml) at 37° C. Reversibility of inhibition was assessed by incubating 0.5 ml suspension containing 1×10^6 cells/ml in culture media in presence of peptide concentration of 0.2 mg/ml. After various incubation periods, aliquots were centrifuged at 900 g, the pellet washed and reincubated for 24 hours in fresh culture medium.
To verify the reversibility of inhibition, treated suspensions were thoroughly washed at various periods and reincubated in fresh medium.

[5] = Dissipation of Diffusion Potential Assay (membrane permeation); details: SUV pretreated with diS-C2-5 and valinomycin
Procedure: Methods: Small unilamellar vesicles (SUV) were prepared by sonication of PC/PS (1:1 w/w) and cholesterol (10% by weight) as described in Shai et al., 1991, J. Biol. Chem. 266:22346-54. Membrane permeation was assessed using the diffusion potential assay. Sims et al., 1974, Biochemistry 13:3315-3330; Shai et al., 1991, J. Biol. Chem. 266:22346-54. […] Maximal activity of the peptides was plotted versus peptide/lipid molar ratio.

[6] = system: Leishmania; details: 300 mg/kg for 20-40 injections; cited from earlier work

Q: With O.O.O.O.O.O.O.O.O.O=C([O-])[C@@H]1[O][Sb]2([O-])([O][Sb]34([OH])[O][C@H]([C@H](O)CO)[C@H]([O]3)[C@H](C(=O)[O-])[O]4)[O][C@H]([C@H](O)CO)[C@@H]1[O]2.[Na+].[Na+].[Na+] [NaSG, sodium stibogluconate] as the compound, how does the “outcome of the cutaneous lesion / disease” value ([1]; Balb/c, up to twelve weeks post inoculation and later) read?
A: reduced; also recorded: complete healing or skin cicatrization were not observed

Q: What about the “reduction of number of parasites and lesion size” value ([1]; mouse, in vivo) of the same compound?
A: partially effective

Q: With “EEEKRENEDEEKQDDEQSEM [acidic peptide, helical acidic synthetic peptide, control]” as the compound, how does the “control peptide compared with physiological water control” value [2] read?
A: No significant differences

Q: For Magainin II: magainin peptide, which MIC [3] is on record?
A: 256 µM

Q: For “NPY: human NPY, 36-residue peptide of the pancreatic peptide family”, which “antimicrobial potency compared with SPYY” value [4] is on record?
A: inhibitory activity at comparable concentrations

Q: What does the source list for PEEMNKYLTALRHYINLVTRQRY-NH2 [SPYY14-36]?
A: antimicrobial potency compared with SPYY [4]: comparable molar potency; membrane permeation [5]: permeated phospholipid vesicles

Q: With “PYY: human PYY, 36-residue peptide of the pancreatic peptide family” as the compound, how does the “antimicrobial potency compared with SPYY” value [4] read?
A: inhibitory activity at comparable concentrations

Q: With meglumine antimoniate [Glucantime] as the compound, how does the outcome of therapy [6] read?
A: does not cure the disease but only results in a transient reduction of the symptoms
